Experimental data from ChEMBL document CHEMBL4020788, “Synthesis, SAR and molecular docking studies of benzo[d]thiazole-hydrazones as potential antibacterial and antifungal agents” (2017).
In brackets after ≈: the same amount, converted by molar mass. Activity calls are given as the source filed them. The rule behind the calls is not given here.

Experiments:
Type in all cases: functional
Fusarium verticillioides [1] = assay: Antifungal activity against Fusarium moniliforme at 50 ug/ml after 48 hrs by agar well diffusion method
Staphylococcus aureus [2] = assay: Antibacterial activity against Staphylococcus aureus at 25 ug/ml after 24 hrs by agar well diffusion method; conditions: read-out: DIZ
Aspergillus niger [3] = assay: Antifungal activity against Aspergillus niger at 75 ug/ml after 48 hrs by agar well diffusion method
Klebsiella pneumoniae [4] = assay: Antibacterial activity against Klebsiella pneumoniae incubated for overnight by microdilution method
Escherichia coli [5] = assay: Antibacterial activity against Escherichia coli at 50 ug/ml after 24 hrs by agar well diffusion method; conditions: read-out: DIZ
Klebsiella pneumoniae [6] = assay: Antibacterial activity against Klebsiella pneumoniae at 100 ug/ml after 24 hrs by agar well diffusion method; conditions: read-out: DIZ
Staphylococcus aureus [7] = assay: Antibacterial activity against Staphylococcus aureus at 100 ug/ml after 24 hrs by agar well diffusion method; conditions: read-out: DIZ
Staphylococcus aureus [8] = assay: Antibacterial activity against methicillin resistant Staphylococcus aureus MRSA090 incubated for overnight by microdilution method
Escherichia coli [9] = assay: Antibacterial activity against Escherichia coli incubated for overnight by microdilution method
Klebsiella pneumoniae [10] = assay: Antibacterial activity against Klebsiella pneumoniae at 75 ug/ml after 24 hrs by agar well diffusion method; conditions: read-out: DIZ
Staphylococcus aureus [11] = assay: Antibacterial activity against Staphylococcus aureus incubated for overnight by microdilution method
Staphylococcus aureus [12] = assay: Antibacterial activity against Staphylococcus aureus at 75 ug/ml after 24 hrs by agar well diffusion method; conditions: read-out: DIZ
Fusarium verticillioides [13] = assay: Antifungal activity against Fusarium moniliforme at 100 ug/ml after 48 hrs by agar well diffusion method
Fusarium oxysporum [14] = assay: Antifungal activity against Fusarium oxysporum at 50 ug/ml after 48 hrs by agar well diffusion method
Staphylococcus aureus [15] = assay: Antibacterial activity against methicillin resistant Staphylococcus aureus MRSA090 at 75 ug/ml after 24 hrs by agar well diffusion method; conditions: MRSA090, 24 h, read-out: DIZ
Staphylococcus aureus [16] = assay: Antibacterial activity against Staphylococcus aureus at 50 ug/ml after 24 hrs by agar well diffusion method; conditions: read-out: DIZ
Fusarium oxysporum [17] = assay: Antifungal activity against Fusarium oxysporum at 25 ug/ml after 48 hrs by agar well diffusion method
Aspergillus niger [18] = assay: Antifungal activity against Aspergillus niger at 100 ug/ml after 48 hrs by agar well diffusion method; conditions: read-out: DIZ
Bacillus subtilis [19] = assay: Antibacterial activity against Bacillus subtilis at 100 ug/ml after 24 hrs by agar well diffusion method; conditions: read-out: DIZ
Bacillus subtilis [20] = assay: Antibacterial activity against Bacillus subtilis at 25 ug/ml after 24 hrs by agar well diffusion method; conditions: read-out: DIZ
Bacillus subtilis [21] = assay: Antibacterial activity against Bacillus subtilis incubated for overnight by microdilution method
Aspergillus niger [22] = assay: Antifungal activity against Aspergillus niger at 50 ug/ml after 48 hrs by agar well diffusion method
Escherichia coli [23] = assay: Antibacterial activity against Escherichia coli at 100 ug/ml after 24 hrs by agar well diffusion method; conditions: read-out: DIZ
Fusarium oxysporum [24] = assay: Antifungal activity against Fusarium oxysporum at 75 ug/ml after 48 hrs by agar well diffusion method
Staphylococcus aureus [25] = assay: Antibacterial activity against methicillin resistant Staphylococcus aureus MRSA090 at 50 ug/ml after 24 hrs by agar well diffusion method; conditions: MRSA090, 24 h, read-out: DIZ
Escherichia coli [26] = assay: Antibacterial activity against Escherichia coli at 75 ug/ml after 24 hrs by agar well diffusion method; conditions: read-out: DIZ
Fusarium verticillioides [27] = assay: Antifungal activity against Fusarium moniliforme after 48 to 72 hrs by microdilution method
Bacillus subtilis [28] = assay: Antibacterial activity against Bacillus subtilis at 75 ug/ml after 24 hrs by agar well diffusion method; conditions: read-out: DIZ
Bacillus subtilis [29] = assay: Antibacterial activity against Bacillus subtilis at 50 ug/ml after 24 hrs by agar well diffusion method; conditions: read-out: DIZ
Fusarium verticillioides [30] = assay: Antifungal activity against Fusarium moniliforme at 75 ug/ml after 48 hrs by agar well diffusion method
Klebsiella pneumoniae [31] = assay: Antibacterial activity against Klebsiella pneumoniae at 50 ug/ml after 24 hrs by agar well diffusion method; conditions: read-out: DIZ
Staphylococcus aureus [32] = assay: Antibacterial activity against methicillin resistant Staphylococcus aureus MRSA090 at 100 ug/ml after 24 hrs by agar well diffusion method; conditions: MRSA090, 24 h, read-out: DIZ
Fusarium oxysporum [33] = assay: Antifungal activity against Fusarium oxysporum after 48 to 72 hrs by microdilution method
Staphylococcus aureus [34] = assay: Antibacterial activity against methicillin resistant Staphylococcus aureus MRSA090 at 25 ug/ml after 24 hrs by agar well diffusion method; conditions: MRSA090, 24 h, read-out: DIZ
Escherichia coli [35] = assay: Antibacterial activity against Escherichia coli at 25 ug/ml after 24 hrs by agar well diffusion method; conditions: read-out: DIZ
Klebsiella pneumoniae [36] = assay: Antibacterial activity against Klebsiella pneumoniae at 25 ug/ml after 24 hrs by agar well diffusion method; conditions: read-out: DIZ
Fusarium oxysporum [37] = assay: Antifungal activity against Fusarium oxysporum at 100 ug/ml after 48 hrs by agar well diffusion method; conditions: read-out: DIZ
Aspergillus niger [38] = assay: Antifungal activity against Aspergillus niger at 25 ug/ml after 48 hrs by agar well diffusion method
Fusarium verticillioides [39] = assay: Antifungal activity against Fusarium moniliforme at 25 ug/ml after 48 hrs by agar well diffusion method

Cc1cccc2nc(N/N=C/c3ccc(O)cc3O)sc12
diameter of the inhibition zone (DIZ) (Fusarium verticillioides [1]): inactive
zone of inhibition at 25 µg/mL (Staphylococcus aureus [2]): 14 mm
zone of inhibition at 75 µg/mL (Aspergillus niger [3]; read-out: DIZ): 17 mm
MIC (Klebsiella pneumoniae [4]): 24 µg/mL (≈ 80.2 µM)
zone of inhibition at 50 µg/mL (Escherichia coli [5]): 12 mm
zone of inhibition at 100 µg/mL (Klebsiella pneumoniae [6]): 25 mm
zone of inhibition at 100 µg/mL (Staphylococcus aureus [7]): 26 mm
MIC (Staphylococcus aureus [8]): 20 µg/mL (≈ 66.8 µM)
MIC (Escherichia coli [9]): 33 µg/mL (≈ 110 µM)
zone of inhibition at 75 µg/mL (Klebsiella pneumoniae [10]): 21 mm
MIC (Staphylococcus aureus [11]): 24 µg/mL (≈ 80.2 µM)
zone of inhibition at 75 µg/mL (Staphylococcus aureus [12]): 23 mm
zone of inhibition at 100 µg/mL (Fusarium verticillioides [13]; read-out: DIZ): 14 mm
diameter of the inhibition zone (DIZ) (Fusarium oxysporum [14]): inactive
zone of inhibition at 75 µg/mL (Staphylococcus aureus [15]): 20 mm
zone of inhibition at 50 µg/mL (Staphylococcus aureus [16]): 18 mm
diameter of the inhibition zone (DIZ) (Fusarium oxysporum [17]): inactive
zone of inhibition at 100 µg/mL (Aspergillus niger [18]): 21 mm
zone of inhibition at 100 µg/mL (Bacillus subtilis [19]): 28 mm
zone of inhibition at 25 µg/mL (Bacillus subtilis [20]): 12 mm
MIC (Bacillus subtilis [21]): 29 µg/mL (≈ 96.9 µM)
zone of inhibition at 50 µg/mL (Aspergillus niger [22]; read-out: DIZ): 14 mm
zone of inhibition at 100 µg/mL (Escherichia coli [23]): 20 mm
diameter of the inhibition zone (DIZ) (Fusarium oxysporum [24]): inactive
zone of inhibition at 50 µg/mL (Staphylococcus aureus [25]): 16 mm
zone of inhibition at 75 µg/mL (Escherichia coli [26]): 17 mm
MIC (Fusarium verticillioides [27]): 25 µg/mL (≈ 83.5 µM)
zone of inhibition at 75 µg/mL (Bacillus subtilis [28]): 24 mm
zone of inhibition at 50 µg/mL (Bacillus subtilis [29]): 18 mm
zone of inhibition at 75 µg/mL (Fusarium verticillioides [30]; read-out: DIZ): 10 mm
zone of inhibition at 50 µg/mL (Klebsiella pneumoniae [31]): 16 mm
zone of inhibition at 100 µg/mL (Staphylococcus aureus [32]): 24 mm
MIC (Fusarium oxysporum [33]): 27 µg/mL (≈ 90.2 µM)
zone of inhibition at 25 µg/mL (Staphylococcus aureus [34]): 12 mm
zone of inhibition at 25 µg/mL (Escherichia coli [35]): 6 mm
zone of inhibition at 25 µg/mL (Klebsiella pneumoniae [36]): 12 mm
zone of inhibition at 100 µg/mL (Fusarium oxysporum [37]): 8 mm
zone of inhibition at 25 µg/mL (Aspergillus niger [38]; read-out: DIZ): 8 mm
diameter of the inhibition zone (DIZ) (Fusarium verticillioides [39]): inactive

CO[C@H]1/C=C/O[C@@]2(C)Oc3c(C)c(O)c4c(O)c(c(/C=N/N5CCN(C)CC5)c(O)c4c3C2=O)NC(=O)/C(C)=C\C=C\[C@H](C)[C@H](O)[C@@H](C)[C@@H](O)[C@@H](C)[C@H](OC(C)=O)[C@@H]1C [RIFAMPIN]
MIC (Klebsiella pneumoniae [4]): 22 µg/mL (≈ 26.7 µM)
MIC (Staphylococcus aureus [8]): 22 µg/mL (≈ 26.7 µM)
MIC (Escherichia coli [9]): 22 µg/mL (≈ 26.7 µM)
MIC (Staphylococcus aureus [11]): 21 µg/mL (≈ 25.5 µM)
zone of inhibition at 75 µg/mL (Staphylococcus aureus [15]): 30 mm
MIC (Bacillus subtilis [21]): 21 µg/mL (≈ 25.5 µM)
zone of inhibition at 50 µg/mL (Staphylococcus aureus [25]): 27 mm
zone of inhibition at 100 µg/mL (Staphylococcus aureus [32]): 33 mm
zone of inhibition at 25 µg/mL (Staphylococcus aureus [34]): 23 mm

COc1ccc(/C=N/Nc2nc3cccc(C)c3s2)c(OC)c1
diameter of the inhibition zone (DIZ) (Fusarium verticillioides [1]): inactive
zone of inhibition at 25 µg/mL (Staphylococcus aureus [2]): 10 mm
diameter of the inhibition zone (DIZ) (Aspergillus niger [3]): inactive
MIC (Klebsiella pneumoniae [4]): 22 µg/mL (≈ 67.2 µM)
zone of inhibition at 50 µg/mL (Escherichia coli [5]): 18 mm
zone of inhibition at 100 µg/mL (Klebsiella pneumoniae [6]): 15 mm
zone of inhibition at 100 µg/mL (Staphylococcus aureus [7]): 28 mm
MIC (Staphylococcus aureus [8]): 22 µg/mL (≈ 67.2 µM)
MIC (Escherichia coli [9]): 25 µg/mL (≈ 76.4 µM)
zone of inhibition at 75 µg/mL (Klebsiella pneumoniae [10]): 12 mm
MIC (Staphylococcus aureus [11]): 26 µg/mL (≈ 79.4 µM)
zone of inhibition at 75 µg/mL (Staphylococcus aureus [12]): 20 mm
diameter of the inhibition zone (DIZ) (Fusarium verticillioides [13]): inactive
zone of inhibition at 50 µg/mL (Fusarium oxysporum [14]; read-out: DIZ): 12 mm
zone of inhibition at 75 µg/mL (Staphylococcus aureus [15]): 22 mm
zone of inhibition at 50 µg/mL (Staphylococcus aureus [16]): 15 mm
zone of inhibition at 25 µg/mL (Fusarium oxysporum [17]; read-out: DIZ): 7 mm
zone of inhibition at 100 µg/mL (Aspergillus niger [18]): 4 mm
zone of inhibition at 100 µg/mL (Bacillus subtilis [19]): 29 mm
zone of inhibition at 25 µg/mL (Bacillus subtilis [20]): 13 mm
MIC (Bacillus subtilis [21]): 24 µg/mL (≈ 73.3 µM)
diameter of the inhibition zone (DIZ) (Aspergillus niger [22]): inactive
zone of inhibition at 100 µg/mL (Escherichia coli [23]): 23 mm
zone of inhibition at 75 µg/mL (Fusarium oxysporum [24]; read-out: DIZ): 14 mm
zone of inhibition at 50 µg/mL (Staphylococcus aureus [25]): 18 mm
zone of inhibition at 75 µg/mL (Escherichia coli [26]): 24 mm
zone of inhibition at 75 µg/mL (Bacillus subtilis [28]): 25 mm
zone of inhibition at 50 µg/mL (Bacillus subtilis [29]): 19 mm
diameter of the inhibition zone (DIZ) (Fusarium verticillioides [30]): inactive
zone of inhibition at 50 µg/mL (Klebsiella pneumoniae [31]): 9 mm
zone of inhibition at 100 µg/mL (Staphylococcus aureus [32]): 27 mm
zone of inhibition at 25 µg/mL (Staphylococcus aureus [34]): 15 mm
zone of inhibition at 25 µg/mL (Escherichia coli [35]): 13 mm
zone of inhibition at 25 µg/mL (Klebsiella pneumoniae [36]): 4 mm
zone of inhibition at 100 µg/mL (Fusarium oxysporum [37]): 17 mm
diameter of the inhibition zone (DIZ) (Aspergillus niger [38]): inactive
diameter of the inhibition zone (DIZ) (Fusarium verticillioides [39]): inactive

O=C(N[C@H](CO)[C@H](O)c1ccc([N+](=O)[O-])cc1)C(Cl)Cl [CHLORAMPHENICOL]
zone of inhibition at 25 µg/mL (Staphylococcus aureus [2]): 24 mm
MIC (Klebsiella pneumoniae [4]): 28 µg/mL (≈ 86.7 µM)
zone of inhibition at 50 µg/mL (Escherichia coli [5]): 27 mm
zone of inhibition at 100 µg/mL (Klebsiella pneumoniae [6]): 36 mm
zone of inhibition at 100 µg/mL (Staphylococcus aureus [7]): 37 mm
MIC (Staphylococcus aureus [8]): 25 µg/mL (≈ 77.4 µM)
MIC (Escherichia coli [9]): 25 µg/mL (≈ 77.4 µM)
zone of inhibition at 75 µg/mL (Klebsiella pneumoniae [10]): 33 mm
MIC (Staphylococcus aureus [11]): 27 µg/mL (≈ 83.6 µM)
zone of inhibition at 75 µg/mL (Staphylococcus aureus [12]): 34 mm
zone of inhibition at 75 µg/mL (Staphylococcus aureus [15]): 27 mm
zone of inhibition at 50 µg/mL (Staphylococcus aureus [16]): 28 mm
zone of inhibition at 100 µg/mL (Bacillus subtilis [19]): 34 mm
zone of inhibition at 25 µg/mL (Bacillus subtilis [20]): 21 mm
MIC (Bacillus subtilis [21]): 27 µg/mL (≈ 83.6 µM)
zone of inhibition at 100 µg/mL (Escherichia coli [23]): 38 mm
zone of inhibition at 50 µg/mL (Staphylococcus aureus [25]): 22 mm
zone of inhibition at 75 µg/mL (Escherichia coli [26]): 32 mm
zone of inhibition at 75 µg/mL (Bacillus subtilis [28]): 31 mm
zone of inhibition at 50 µg/mL (Bacillus subtilis [29]): 25 mm
zone of inhibition at 50 µg/mL (Klebsiella pneumoniae [31]): 29 mm
zone of inhibition at 100 µg/mL (Staphylococcus aureus [32]): 31 mm
zone of inhibition at 25 µg/mL (Staphylococcus aureus [34]): 19 mm
zone of inhibition at 25 µg/mL (Escherichia coli [35]): 23 mm
zone of inhibition at 25 µg/mL (Klebsiella pneumoniae [36]): 24 mm
